In paper PMC6397271 (Scientific Reports, 2019):
Converted amounts (≈) assume the structure as drawn. Read-outs that look alike come from different tables or passages of the source.

What was measured:
[1] = test system: S. aureus MRSA 12673; assay: microbe, parasite or virus in culture; type: cell-based, Staphylococcus aureus
Outline: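 Strains were cultured aerobically at 37 °C for 24 h, MRSA in cation-adjusted Mueller-Hinton broth and enterococci in BHI broth. Cultures were serially diluted and plated to set CFU/ml. MICs then came from broth microdilution, scored by resazurin reduction.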

[2] = test system: S. aureus MRSA hetero-VISA 6347; assay: microbe, parasite or virus in culture; type: cell-based, Staphylococcus aureus
Outline: (§1)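 MRSA strains (N315 reference; h-VISA 6347 clinical) and clinical E. faecium and E. faecalis were grown 24 h at 37 °C in cation-adjusted Mueller-Hinton or BHI broth, with CFU/ml determined. MIC was measured by broth microdilution with a resazurin metabolic read-out, in triplicate.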

[3] = test system: S. aureus MRSA N315; assay: microbe, parasite or virus in culture; type: cell-based, Staphylococcus aureus
Outline: as §1

[4] = test system: bacterial strain not named; assay: Raw data of the MIC measurement (absorbance); type: cell-based; conditions: concentration marked (MIC) in raw absorbance data
Procedure: The strains were grown in Mueller-Hinton broth (MH cation-adjusted, Becton Dickinson) or Brain Heart Infusion broth (BHI, Becton Dickinson), respectively. The cultivation was carried out in an aerobic atmosphere at 37 °C for 24 hours and, afterwards, the bacterial cultures were diluted in geometric progression with a proper broth. Next, 100 µl of each dilution was inoculated in an agar plate and incubated at 37 °C for 24 h. The next procedures included determination of Colony Forming Units (CFU)/ml and minimal inhibitory concentration (MIC) of the compounds in question. The latter procedure was carried out according to the microbroth dilution technique using 96-well plates. The MICs were evaluated by using the metabolic assay based on the resazurin dye. The assay was performed in triplicates.

[5] = test system: S.aureus MRSA hetero-VISA 6347; assay: microbe, parasite or virus in culture; type: cell-based, Staphylococcus aureus; conditions: Staphylococcus aureus
Procedure: (§2) To find out MICA(with B) and MICB(with A) a checkerboard assay was carried out in 96-well microtiter plates (each test was performed in triplicates). […] Each well in a 96-well plate was inoculated with 100 µL of bacterial inoculum of 1 × 10^5 CFU/mL. For this purpose only bacterial strains of MRSA (N315, 12673 and 6347) were used. Next, the plates were incubated at 37 °C for 24 h.
(§3) FIC index (FICI) is the sum of FICA and FICB. The interpretation of the calculated FICIs is in accordance to the following principle: FICI ≤ 0.5 synergy; FICI > 0.5 and ≤4 indifference (no interaction); FICI > 4, antagonism.

[6] = test system: S.aureus MRSA N315; assay: microbe, parasite or virus in culture; type: cell-based, Staphylococcus aureus; conditions: Staphylococcus aureus, MRSA
Procedure: as §2, §3

[7] = test system: S.aureus MRSA 12673; assay: microbe, parasite or virus in culture; type: cell-based, Staphylococcus aureus; conditions: Staphylococcus aureus, MRSA
Procedure: as §2, §3

[8] = Staphylococcus aureus, MRSA, 24 h, microbroth dilution, 96-well, resazurin, 37 °C, 24 h, mean ± SD, at least three independent experiments in triplicates, read-out: MIC
[9] = Staphylococcus aureus, MRSA, raw MIC, first block, test a, repetition 1, read-out: MIC1a
[10] = Staphylococcus aureus, MRSA, raw MIC, first block, test a, repetition 2, read-out: MIC2a
[11] = Staphylococcus aureus, MRSA, raw MIC, first block, test a, repetition 3, read-out: MIC3a
[12] = Staphylococcus aureus, MRSA, raw MIC, first block, test b, repetition 1, read-out: MIC1b
[13] = Staphylococcus aureus, MRSA, raw MIC, first block, test b, repetition 2, read-out: MIC2b
[14] = Staphylococcus aureus, MRSA, raw MIC, first block, test b, repetition 3, read-out: MIC3b
[15] = Staphylococcus aureus, MRSA, raw MIC, test a, repetition 1, read-out: MIC1a
[16] = Staphylococcus aureus, MRSA, raw MIC, test a, repetition 2, read-out: MIC2a
[17] = Staphylococcus aureus, MRSA, raw MIC, test a, repetition 3, read-out: MIC3a
[18] = Staphylococcus aureus, MRSA, raw MIC, test b, repetition 1, read-out: MIC1b
[19] = Staphylococcus aureus, MRSA, raw MIC, test b, repetition 2, read-out: MIC2b
[20] = Staphylococcus aureus, MRSA, raw MIC, test b, repetition 3, read-out: MIC3b
[21] = microbroth dilution, 96-well, resazurin, 37 °C, 24 h, mean ± SD, at least three independent experiments in triplicates, listed as Van-HCl
[22] = same test as μM value, mean ± SD
[23] = 24 h, read-out: MIC Van(with TP10), MICA (with B)

SMILES: CN[C@H](CC(C)C)C(=O)N[C@H]1C(=O)N[C@@H](CC(N)=O)C(=O)N[C@H]2C(=O)N[C@H]3C(=O)N[C@H](C(=O)N[C@H](C(=O)O)c4cc(O)cc(O)c4-c4cc3ccc4O)[C@H](O)c3ccc(c(Cl)c3)Oc3cc2cc(c3O[C@@H]2O[C@H](CO)[C@@H](O)[C@H](O)[C@H]2O[C@H]2C[C@](C)(N)[C@H](O)[C@H](C)O2)Oc2ccc(cc2Cl)[C@H]1O [Van, vancomycin, reference compound]
- MIC [1, 8]: 4.1 µM (≈ 5.94 µg/mL)
- MIC [1, 9]: 4.07 µM (≈ 5.9 µg/mL)
- MIC [1, 10]: 2.03 µM (≈ 2.94 µg/mL)
- MIC [1, 11]: 4.07 µM (≈ 5.9 µg/mL)
- MIC [1, 12]: 4.07 µM (≈ 5.9 µg/mL)
- MIC [1, 13]: 2.03 µM (≈ 2.94 µg/mL)
- MIC [1, 14]: 4.07 µM (≈ 5.9 µg/mL)
- MIC [1, 15]: 6.05 µM (≈ 8.77 µg/mL)
- MIC [1, 16]: 3.03 µM (≈ 4.39 µg/mL)
- MIC [1, 17]: 6.05 µM (≈ 8.77 µg/mL)
- MIC [1, 18]: 6.05 µM (≈ 8.77 µg/mL)
- MIC [1, 19]: 3.03 µM (≈ 4.39 µg/mL)
- MIC [1, 20]: 6.05 µM (≈ 8.77 µg/mL)
- MIC [1, 21]: 4.1 ± 1.1 µM (≈ 5.94 µg/mL)
- MIC in (μg/ml) [1, 22]: 6.1 ± 1.6 µg/mL (≈ 4.21 µM)
- MIC ([2]; Staphylococcus aureus, 24 h, microbroth dilution, 96-well, resazurin, 37 °C, 24 h, mean ± SD, at least three independent experiments in triplicates, read-out: MIC): 4.1 µM (≈ 5.94 µg/mL)
- MIC ([2]; Staphylococcus aureus, raw MIC, first block, test a, repetition 1, read-out: MIC1a): 4.07 µM (≈ 5.9 µg/mL)
- MIC ([2]; Staphylococcus aureus, raw MIC, first block, test a, repetition 2, read-out: MIC2a): 4.07 µM (≈ 5.9 µg/mL)
- MIC ([2]; Staphylococcus aureus, raw MIC, first block, test a, repetition 3, read-out: MIC3a): 4.07 µM (≈ 5.9 µg/mL)
- MIC ([2]; Staphylococcus aureus, raw MIC, first block, test b, repetition 1, read-out: MIC1b): 2.03 µM (≈ 2.94 µg/mL)
- MIC ([2]; Staphylococcus aureus, raw MIC, first block, test b, repetition 2, read-out: MIC2b): 4.07 µM (≈ 5.9 µg/mL)
- MIC ([2]; Staphylococcus aureus, raw MIC, first block, test b, repetition 3, read-out: MIC3b): 2.03 µM (≈ 2.94 µg/mL)
- MIC ([2]; Staphylococcus aureus, raw MIC, test a, repetition 1, read-out: MIC1a): 6.05 µM (≈ 8.77 µg/mL)
- MIC ([2]; Staphylococcus aureus, raw MIC, test a, repetition 2, read-out: MIC2a): 6.05 µM (≈ 8.77 µg/mL)
- MIC ([2]; Staphylococcus aureus, raw MIC, test a, repetition 3, read-out: MIC3a): 6.05 µM (≈ 8.77 µg/mL)
- MIC ([2]; Staphylococcus aureus, raw MIC, test b, repetition 1, read-out: MIC1b): 3.03 µM (≈ 4.39 µg/mL)
- MIC ([2]; Staphylococcus aureus, raw MIC, test b, repetition 2, read-out: MIC2b): 6.05 µM (≈ 8.77 µg/mL)
- MIC ([2]; Staphylococcus aureus, raw MIC, test b, repetition 3, read-out: MIC3b): 3.03 µM (≈ 4.39 µg/mL)
- MIC [2, 21]: 4.1 ± 1.1 µM (≈ 5.94 µg/mL)
- MIC in (μg/ml) [2, 22]: 6.1 ± 1.6 µg/mL (≈ 4.21 µM)
- MIC [3, 8]: 2 µM (≈ 2.9 µg/mL)
- MIC [3, 9]: 2 µM (≈ 2.9 µg/mL)
- MIC [3, 10]: 1 µM (≈ 1.45 µg/mL)
- MIC [3, 11]: 2 µM (≈ 2.9 µg/mL)
- MIC [3, 12]: 2 µM (≈ 2.9 µg/mL)
- MIC [3, 13]: 2 µM (≈ 2.9 µg/mL)
- MIC [3, 14]: 1 µM (≈ 1.45 µg/mL)
- MIC [3, 15]: 2.97 µM (≈ 4.3 µg/mL)
- MIC [3, 16]: 1.49 µM (≈ 2.16 µg/mL)
- MIC [3, 17]: 2.97 µM (≈ 4.3 µg/mL)
- MIC [3, 18]: 2.97 µM (≈ 4.3 µg/mL)
- MIC [3, 19]: 2.97 µM (≈ 4.3 µg/mL)
- MIC [3, 20]: 1.49 µM (≈ 2.16 µg/mL)
- MIC [3, 21]: 2.0 ± 0.5 µM (≈ 2.9 µg/mL)
- MIC ([3]; microbroth dilution, 96-well, resazurin, 37 °C, 24 h, mean ± SD, at least three independent experiments in triplicates, read-out: MIC): 2 µM (≈ 2.9 µg/mL)
- MIC in (μg/ml) [3, 22]: 3.0 ± 0.7 µg/mL (≈ 2.07 µM)
- MIC [4]: 3.13 µM (≈ 4.54 µg/mL)
- MIC [5, 23]: 1.6 µM
- MIC ([5]; read-out: MIC Van (A), MICA): 4.1 µM
- MIC [6, 23]: 1.6 µM
- MIC ([6]; read-out: MIC Van (A), MICA): 2 µM
- MIC [7, 23]: 1.6 µM
- MIC ([7]; read-out: MIC Van (A), MICA): 4.1 µM
